{"source": "patent US10317418B2", "about": "“Use of ghrelin or functional ghrelin receptor agonists to prevent and treat stress-sensitive psychiatric illness” (Massachusetts Institute of Technology, priority 2015, dated 2019)", "key": {"Long Evans rats [1]": {"test_system": "Long Evans rats", "test": "auditory Pavlovian fear conditioning and extinction testing, unstressed rats", "format": "in vivo, rat", "procedure": "All experiments used adult, male Long Evans rats (300-350 g, Charles River, Raleigh, N.C. or 250-275 g, Taconic, Germantown, N.Y.), individually housed (68-72° F.; 12-h light/dark cycle, 0700 h lights on). Control animals were housed in separate cubicles from stressed animals. Water and food was given ad libitum. All procedures were approved by the Institutional Animal Care and Use Committee of the Massachusetts Institute of Technology and the Animal Care and Use Review Office of the US Army Medical Research and Materiel Command and in accordance with the US National Institutes of Health (NIH) Guide for the Care and Use of Laboratory Animals.\n(§1) Some rats received systemic or intra-BLA delivery of ibutamoren mesylate (IBU). For systemic drug delivery, rats were injected with 1 ml kg^−1 intraperitoneal injection (i.p.) of either vehicle or drug. […] A concentration of 0.5 mg ml^−1, diluted in saline, was used. For experiments using intra-BLA drug delivery, ibutamoren mesylate was solubilized in artificial cerebrospinal fluid (pH=7.4) to a concentration of 0.5 μg μl^−1.\nSome rats received bilateral implants of stainless steel cannulae aimed at the BLA. Rats were anesthetized with a cocktail of 10 mg kg^−1 acepromazine, 100 mg kg^−1 xylazine, and 100 mg kg^−1 ketamine (1 ml kg^−1; i.p.) and placed in a dual arm stereotaxic frame (Kopf Instruments; Tujunga, Calif.). The rats were then implanted with 23 gauge guide cannulae 1 mm above LA using the following coordinates, relative to bregma and brain surface: A/P −2.0, M/L+/−5.3, D/V −5.4. Three jeweler screws were also implanted in the skull, and dental acrylic was used to secure the implant. Dummy cannulae extending 1 mm past the tip of the guide cannulae were placed into the guide cannula after surgery and changed every other day. Rats received 0.03 mg kg^−1 of Buprenex (1 ml kg^−1; subcutaneous injection (s.c.)) for post-operative pain management. All rats recovered for a minimum of 5 days.\nA subset of rats were subjected to auditory Pavlovian fear conditioning and extinction testing. All rats were transported in their home cages from the vivarium to a holding room in which no behavioral testing was conducted. This transport occurred at least one hour prior to the onset of any behavioral testing.\nFor catheterized rats, each rat was placed in a fear conditioning box (MedAssociates; St. Albans, Vt.) scented with Pine-Sol (1%) for 250 sec total. The rats had 3 minutes to explore the novel environment before tone (10 seconds, 85 dB)-shock (2 seconds, 0.35 mA; coterminating with the tone) pairings [20 second intertrial intervals (ITIs)] were administered. Long-term context and tone fear memory was assessed the following day. For context extinction, the rats were returned to the fear conditioning context for a total of 10 minutes. Four hours later, tone extinction was administered by placing the rats in the fear conditioning boxes with an altered context. White Plexiglas inserts were used to obscure the back and side walls and cover the grid floor. Room and box lights were turned off, a red light provided illumination (15 W), and acetic acid (1%) was used to scent the boxes. Two minutes were allowed for exploration before a continuous tone (8 minutes, 87 dB) was presented. For rats with BLA cannula implants, all conditioning and testing was as described, except context and tone extinction were separated by 24 hours.\n(§2) On the fear conditioning day, rats were exposed to four tone-shock pairings with a 60 second ITI (460 seconds total time). For context extinction, rats were returned to the conditioning context for 12 minutes total. For tone extinction, rats were exposed to twelve tones (10 seconds, 85 dB) for 960 seconds total. Conditioning, context and tone extinction sessions were separated by 24 hours.\nInfrared cameras (frame rate: 30 Hz) and VideoFreeze software (MedAssociates; St Albans, Vt.) were used to record behavior during all training and testing sessions. […]"}, "[2]": {"details": "in vivo; cited from earlier work"}, "Long Evans rats [3]": {"test_system": "Long Evans rats", "test": "auditory fear conditioning after chronic immobilization stress or handling", "format": "in vivo, rat", "details": "FIG. 4F", "procedure": "as §1, §2\nInfrared cameras (frame rate: 30 Hz) and VideoFreeze software (MedAssociates; St Albans, Vt.) were used to record behavior during all training and testing sessions. Motor activity was measured using the “motion index”, a number generated by the VideoFreeze software, which corresponds roughly to the change in grayscale values across the image pixels; a higher motion index indicates greater movement. Freezing was measured by computing the number of observations below a threshold motion index and converting this number to a percentage of all observations for the period of interest. The threshold defined the value of the motion index below which only motor activity related to breathing was observed. […]\nTo determine whether the decrease in ghrelin binding sites in the BLA of chronically stressed rats exerts a functional impact, rats received either chronic immobilization stress or handling for two weeks followed by auditory fear conditioning (FIG. 4E). IBU, at the dose shown to reduce fear memory strength in unstressed rats (FIGS. 3A-D), or VEH was injected immediately after conditioning and long-term auditory fear memory was assessed two days later. […]"}, "Long Evans rats [4]": {"test_system": "Long Evans rats", "test": "food consumption assay and body weight after IBU", "format": "in vivo, rat", "procedure": "as §1\nFor some rats, food consumption was monitored. After fear conditioning as described above, each rat was returned to its home cage in a holding room. Each rat had 200 g of chow placed in the food hopper. Food was quickly weighed and returned 30 minutes, 1 hour, 2 hours, and 3 hours after fear conditioning ended. Three days after fear recall testing (five days after fear conditioning), food consumption was measured during the same time points within the day, but while the rats were undisturbed in their home cages in the vivarium.\nTo assess fear memory strength, conditional freezing was expressed as the percentage of time spent freezing, a probability estimate amenable to analysis with parametric statistics. These estimates of freezing, as well as hormone levels and data related to food consumption and body weight, were analyzed using ANOVA. Post hoc Fisher's PLSD tests were performed after a significant omnibus F-ratio."}, "[5]": {"details": "intra-BLA infusion (0.5 μg/μl) prior to fear conditioning, FIG. 3B"}, "[6]": {"details": "systemic (i.p., 0.5 mg/ml) prior to fear conditioning, vs vehicle, FIG. 3A"}, "[7]": {"details": "systemic, 0.5 mg/mL, following fear conditioning, FIG. 7A"}}, "note": "Entries after “also recorded” stand apart in the source; their conditions may differ. Structures can show the parent of a compound that is named as a salt.", "data": [{"smiles": "CC(C)(N)C(=O)N[C@H](COCc1ccccc1)C(=O)N1CCC2(CC1)CN(S(C)(=O)=O)c1ccccc12", "note": "[IBU, ibutamoren mesylate]", "values": [{"measurement": "fear acquisition", "setting": "Long Evans rats [1]; [5]", "result": "without any effect; also recorded: without affecting"}, {"measurement": "long-term auditory fear memory", "setting": "Long Evans rats [1]; [5]", "result": "strongly inhibited; also recorded: significantly impaired"}, {"measurement": "long-term contextual memory", "setting": "Long Evans rats [1]; [5]", "result": "strongly inhibited; also recorded: significantly impaired"}, {"measurement": "fear acquisition", "setting": "Long Evans rats [1]; [6]", "result": "without impacting; also recorded: without affecting"}, {"measurement": "long-term contextual memory", "setting": "Long Evans rats [1]; [6]", "result": "without impacting; also recorded: without affecting"}, {"measurement": "long-term auditory fear memory", "setting": "Long Evans rats [1]; systemic (i.p., 1 ml/kg of 0.5 mg/ml) 30 minutes prior to fear conditioning, vs vehicle, FIG. 3A", "result": "significantly lower levels; also recorded: significantly impaired"}, {"measurement": "fear acquisition", "setting": "Long Evans rats [1]; [7]", "result": "without any effect; also recorded: without affecting"}, {"measurement": "long-term auditory fear memory", "setting": "Long Evans rats [1]; [7]", "result": "strongly inhibited; also recorded: significantly impaired"}, {"measurement": "long-term contextual fear memory", "setting": "Long Evans rats [1]; [7]", "result": "strongly inhibited; also recorded: significantly impaired"}, {"measurement": "crossing of the blood-brain barrier", "setting": "[2]", "result": "readily crosses"}, {"measurement": "half-life", "setting": "[2]", "result": "> 6", "unit": "h"}, {"measurement": "long-term auditory fear memory (conditional freezing)", "setting": "Long Evans rats [3]; rats exposed to chronic immobilization stress (14 days), systemic IBU", "result": "no effect and not"}, {"measurement": "freezing during fear conditioning (group differences)", "setting": "Long Evans rats [3]; stressed and unstressed rats, IBU or VEH", "result": "No group differences"}, {"measurement": "long-term auditory fear memory", "setting": "Long Evans rats [3]; unstressed (handled) rats, systemic IBU", "result": "reduced; also recorded: significantly impaired"}, {"measurement": "body weight measured 24 hours after injection", "setting": "Long Evans rats [4]; intra-BLA infusion, FIG. 3D", "result": "does not change"}, {"measurement": "body weight", "setting": "Long Evans rats [4]; systemic, 0.5 mg/mL, IBU vs vehicle group, FIG. 3C right panel", "result": "did not differ"}, {"measurement": "food consumption shortly following injection", "setting": "Long Evans rats [4]; systemic, 0.5 mg/mL, relative to body weight, FIG. 3C left panel", "result": "does not impact"}, {"measurement": "food consumption cumulatively, over the 24 hours following injection", "setting": "Long Evans rats [4]; systemic, 0.5 mg/mL, relative to body weight, FIG. 3C middle panel", "result": "does not impact"}, {"measurement": "food consumption shortly following injection", "setting": "Long Evans rats [4]; systemic, 10 mg/mL (twenty times the dose), FIG. 7B left panel", "result": "does not impact"}, {"measurement": "food consumption cumulatively, over the 24 h following injection", "setting": "Long Evans rats [4]; systemic, 10 mg/mL (twenty times the dose), FIG. 7B middle panel", "result": "does not impact"}]}]}
